GI50 and TGI data for eight molecules are collected here from PubChem BioAssay (NCI).

Test systems include A549 NSCLC; SNB-75 CNS; PC-3 prostate; OVCAR-4 ovarian; NCI/ADR-RES ovarian; OVCAR-3 ovarian; CAKI-1 renal; A498 renal; NCI-H522 lung; UACC-257 melanoma.
Assay in all cases: NCI anticancer screen, dose series, 48 h

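Exposure lasted 48 hours, with cells grown in 96-well plates and compounds tested at five concentrations. Abbreviation: GI50, concentration required for 50% inhibition of growth. At the TGI there is no net growth.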 Bounds are passed on as bounds.

With `COc1ccc2cc(-c3ccoc(=O)c3-c3cc(OC)c(OC)c(OC)c3)ccc2c1`, the GI50 in the test on A549 NSCLC is 0.0775 µM; in the test on SNB-75 CNS, 0.0977 µM; with PC-3 prostate it was 0.0521 µM; with OVCAR-4 ovarian, 1.16 µM; in the test on NCI/ADR-RES ovarian, 0.0528 µM; in the test with OVCAR-3 ovarian, 0.0316 µM. For the same molecule, the GI50 is 0.0986 µM with CAKI-1 renal, 0.0723 µM with A498 renal and 0.0206 µM in the test on NCI-H522 lung. Besides, the TGI with A549 NSCLC, in the test with SNB-75 CNS, with PC-3 prostate, in the test on OVCAR-4 ovarian, with NCI/ADR-RES ovarian and in the test with OVCAR-3 ovarian was more than 100 µM each time. Also, the results for the TGI in the test on CAKI-1 renal and in the test on NCI-H522 lung were more than 100 µM and 0.113 µM, respectively.
Regarding `COc1cc2c(c(OC)c1OC)-c1ncc3cc(OC)c(OC)c(OC)c3c1C2`, the GI50 in the test on A549 NSCLC is 20.3 µM; in the test on UACC-257 melanoma, 12.1 µM; in the test on SNB-75 CNS it was 54.5 µM; with PC-3 prostate, 44.2 µM; in the test with OVCAR-4 ovarian, 44.5 µM; in the test on NCI/ADR-RES ovarian, 12.1 µM. In addition, the GI50 with OVCAR-3 ovarian was 19.1 µM; with CAKI-1 renal, 22.5 µM; in the test with NCI-H522 lung, 16.1 µM. Moreover, the TGI was more than 100 µM in the test on A549 NSCLC; 27.2 µM with UACC-257 melanoma; more than 100 µM with SNB-75 CNS; more than 100 µM in the test with PC-3 prostate; more than 100 µM in the test on OVCAR-4 ovarian; 51.2 µM in the test on NCI/ADR-RES ovarian. Further, the TGI amounted to 46.3 µM in the test on OVCAR-3 ovarian, 74.3 µM in the test with CAKI-1 renal and 43.2 µM with NCI-H522 lung.
For the molecule `C=CC(=O)N(C)[C@H]1C[C@H]2OC(C)(C1OC)n1c3ccccc3c3c4c(c5c6ccccc6n2c5c31)C(=O)NC4` (stereo not given in full), the GI50 in the test with A549 NSCLC is 0.0938 µM; in the test with UACC-257 melanoma it was 0.216 µM; in the test on SNB-75 CNS, 0.0137 µM; with PC-3 prostate, 0.182 µM; in the test with OVCAR-4 ovarian it was 0.0939 µM; in the test on NCI/ADR-RES ovarian, 0.182 µM. In addition, the GI50 in the test with OVCAR-3 ovarian was 0.16 µM; with A498 renal, 0.0349 µM; with NCI-H522 lung it was 0.0839 µM. Besides, the TGI in the test with A549 NSCLC is more than 20 µM; with UACC-257 melanoma, 1.39 µM; in the test on SNB-75 CNS it was 0.0766 µM; in the test with PC-3 prostate it was 15.2 µM; in the test on OVCAR-4 ovarian, more than 50 µM; with NCI/ADR-RES ovarian it was 3.59 µM. The results for the TGI in the test on OVCAR-3 ovarian, in the test on A498 renal and in the test on NCI-H522 lung were 0.851 µM, 0.182 µM and 0.565 µM, respectively.
Consider `CC(CN1CCN(CCOCCO)CC1)CN1c2ccccc2Sc2ccc(Cl)cc21` (stereo not given), for which the GI50 is 3.05 µM in the test with A549 NSCLC; 1.49 µM in the test on UACC-257 melanoma; 2.6 µM in the test on PC-3 prostate; 4.22 µM with OVCAR-4 ovarian; 4.39 µM in the test with NCI/ADR-RES ovarian; 3.62 µM with OVCAR-3 ovarian. Further, the GI50 with CAKI-1 renal was 4.37 µM; in the test on A498 renal, 1.78 µM; with NCI-H522 lung, 1.71 µM. Besides, the TGI with A549 NSCLC was 12.4 µM; in the test with UACC-257 melanoma, 3.11 µM; in the test with PC-3 prostate, 10.6 µM; in the test with OVCAR-4 ovarian, 16 µM; in the test on NCI/ADR-RES ovarian it was 18.1 µM; in the test with OVCAR-3 ovarian, 12.7 µM. The TGI in the test on CAKI-1 renal came to 17.1 µM; in the test with A498 renal, 5.08 µM; in the test on NCI-H522 lung, 3.36 µM.
In the case of `C=C1CC[C@@H]2[C@](C)(COC(C)=O)[C@@H](O)CC[C@@]2(C)[C@@H]1COc1ccc2ccc(=O)oc2c1`, the GI50 with A549 NSCLC was more than 100 µM; with UACC-257 melanoma, more than 100 µM; in the test with SNB-75 CNS, 17.6 µM; in the test on PC-3 prostate, more than 100 µM; with OVCAR-4 ovarian, more than 100 µM; in the test with NCI/ADR-RES ovarian, more than 100 µM. For the same molecule, the GI50 in the test with OVCAR-3 ovarian, in the test on CAKI-1 renal and in the test on NCI-H522 lung was more than 100 µM throughout. For the same molecule, the TGI with A549 NSCLC, with UACC-257 melanoma, with SNB-75 CNS, in the test with PC-3 prostate, in the test on OVCAR-4 ovarian and in the test with NCI/ADR-RES ovarian was more than 100 µM in each case. Besides, the TGI in the test with OVCAR-3 ovarian, with CAKI-1 renal and with NCI-H522 lung was more than 100 µM throughout.
As for `Clc1cc(Cl)c(OCC#CI)cc1Cl`, the GI50 in the test with A549 NSCLC was 16.8 µM; in the test on UACC-257 melanoma, 2.79 µM; in the test on SNB-75 CNS, 6.13 µM; in the test with PC-3 prostate it was 12.7 µM; with NCI/ADR-RES ovarian, 2.79 µM; in the test on OVCAR-3 ovarian it was 1.85 µM. The results for the GI50 in the test on CAKI-1 renal, with A498 renal and with NCI-H522 lung were 1.09 µM, 13.7 µM and 1.53 µM, respectively. Besides, the TGI in the test on A549 NSCLC turned out to be 31.4 µM; with UACC-257 melanoma it was 11.9 µM; in the test with SNB-75 CNS, 20 µM; with PC-3 prostate, 27.9 µM; with NCI/ADR-RES ovarian it was 9.66 µM; with OVCAR-3 ovarian, 3.91 µM. For the same molecule, the TGI in the test on CAKI-1 renal is 2.69 µM; in the test on A498 renal, 26.6 µM; with NCI-H522 lung, 3.7 µM.
On to `CCCCCCCCCCCCCCCCCC(=O)OCC(COC1OC(COP(=O)(O)O)C(O)C(O)C1O)OC(=O)CCCCCCCCCCCCCCCCC` (stereo not given), for which the TGI in the test on A549 NSCLC came out at 16 µM; in the test with UACC-257 melanoma, 16.6 µM; with SNB-75 CNS, 11.5 µM; with PC-3 prostate, 14.3 µM; in the test with OVCAR-4 ovarian, 14.5 µM; in the test with NCI/ADR-RES ovarian, 18.2 µM. Moreover, the TGI in the test on OVCAR-3 ovarian stood at 16 µM; in the test with CAKI-1 renal, 16.9 µM; in the test with A498 renal it was 12.5 µM.
As to `CNC(=O)OCc1c(COC(=O)NC)c(C)n(-c2ccc(Br)cc2)c1C`, the TGI in the test on A549 NSCLC was determined as 38.1 µM; in the test on UACC-257 melanoma, 32.3 µM; with SNB-75 CNS it was 19.1 µM; with PC-3 prostate, 65.8 µM; in the test with NCI/ADR-RES ovarian, 34.9 µM; with OVCAR-3 ovarian it was 30.4 µM. Further, the figures for the TGI in the test with CAKI-1 renal, with A498 renal and with NCI-H522 lung were more than 100 µM, 3.21 µM and 25.9 µM, respectively.
